Values quoted from earlier work, collected in patent US20220401366A1, “LONG ACTING NMDA ANTAGONISTS” (Consegna Pharma, Inc., priority 2019, published 2022).

Conditions: S-ketamine versus R-ketamine

Compound: CN[C@]1(c2ccccc2Cl)CCCCC1=O [S-ketamine]
- potency relative to R-ketamine: twice as potent as R-ketamine
